Consider 9 compounds from patent US20090028925A1, “Novel Phosphinic Acid-Containing Thyromimetics” (priority 2005, published 2009).

As a reminder, the Ki is the equilibrium dissociation constant of an inhibitor or competing ligand from its target. As usually defined, the Vmax is the top rate of the reaction or transport when substrate is in excess. As usually defined, the microsomal CLint is a measure of how fast metabolising enzymes remove a compound, apart from limits set by blood flow. As usually defined, the Km is the concentration of substrate that gives half-maximal velocity.

The target of data set [1] is T1, human thyroid hormone receptors TRβ1 (Homo sapiens, UniProt P10828).
T1 construct: made in house; host or cells: Sf9 insect cells (baculovirus)
T1 sequence (P10828 1-461): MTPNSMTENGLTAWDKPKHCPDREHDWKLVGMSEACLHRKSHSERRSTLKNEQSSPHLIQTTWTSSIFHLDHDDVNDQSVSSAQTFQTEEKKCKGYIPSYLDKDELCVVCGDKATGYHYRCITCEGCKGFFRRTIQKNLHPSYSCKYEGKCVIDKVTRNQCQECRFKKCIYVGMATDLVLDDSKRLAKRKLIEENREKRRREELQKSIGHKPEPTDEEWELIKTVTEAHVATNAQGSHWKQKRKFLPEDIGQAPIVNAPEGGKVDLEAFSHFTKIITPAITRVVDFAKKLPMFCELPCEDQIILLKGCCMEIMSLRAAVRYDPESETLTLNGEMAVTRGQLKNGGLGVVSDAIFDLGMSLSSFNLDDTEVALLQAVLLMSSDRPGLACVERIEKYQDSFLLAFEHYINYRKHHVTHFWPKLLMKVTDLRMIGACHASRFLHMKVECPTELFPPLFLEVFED
T1 sequence (P19793 1-462 partner): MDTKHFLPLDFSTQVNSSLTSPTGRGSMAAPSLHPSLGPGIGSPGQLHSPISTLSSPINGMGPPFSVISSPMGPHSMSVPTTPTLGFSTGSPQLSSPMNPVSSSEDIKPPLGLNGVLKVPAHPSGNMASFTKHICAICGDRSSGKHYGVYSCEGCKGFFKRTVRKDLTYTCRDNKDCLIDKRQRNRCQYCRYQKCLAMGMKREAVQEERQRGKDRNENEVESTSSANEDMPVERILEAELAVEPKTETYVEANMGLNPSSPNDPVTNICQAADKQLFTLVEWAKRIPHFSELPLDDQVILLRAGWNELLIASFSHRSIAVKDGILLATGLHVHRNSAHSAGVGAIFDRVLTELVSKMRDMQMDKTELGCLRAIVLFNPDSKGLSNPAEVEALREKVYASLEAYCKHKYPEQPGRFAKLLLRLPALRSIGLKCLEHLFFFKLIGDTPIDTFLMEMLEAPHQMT
The data set can be described thus: Receptor binding to TRβ1 (gel filtration and scintillation proximity assay, labeled T3). Conditions: SPA data; read-out: Ki TRβ. For orientation: Size exclusion chromatography separates by hydrodynamic size, large species first.

On the set-up of data set [2]: species or system rats. Conditions: in vivo, po. How it is done:
The oral bioavailability (OBAV) of Compound 12-1, a bis POM prodrug of Compound 7, was estimated by comparison of the dose-normalized area under the curve (AUC) of the plasma concentration-time profile of Compound 7 following IV and PO administration of Compound 7 and Compound 12-1, respectively, to normal rats.
Method: Groups of non-fasted male SD rats were administered either 5 mg/kg of Compound 7 by IV bolus or 20 mg/kg of Compound 12-1 by oral gavage. Prior to drug administration, the rats were catheterized at the tail artery to facilitate blood collection. Plasma samples were obtained at pre-specified time points following dosing, extracted with 1.5 volumes of methanol, and then assayed by an LC-UV method using a C18 column eluted with a gradient of 20% to 45% v/v acetonitrile in a potassium phosphate buffer pH 6.2 over 15 min with UV absorbance monitoring at 280 nm. The AUC values were determined noncompartmentally from the plasma concentration-time plots by trapezoidal summation to the last measurable time point.
Plasma levels of compound were analyzed by HPLC and the AUCs for the i.v. dose of 5 mg/kg and the p.o. dose of 20 mg/kg were compared. The maximum OBAV for Compound 19-2 was 0.003%. Typically, compounds that are taken forward as an oral drug candidate have OBAV values of at least 15-20%, when tested in an animal model. This minimal requirement for OBAV in a genetically homogenous model system insures that exposure can be accurately monitored when humans are treated with the compound. Furthermore, in a genetically variable background such as humans, the variability for a compound with low OBAV in genetically homogenous model systems, can be widely variable, leading some subjects to have much higher than anticipated exposure, while other subjects have no exposure.

Data set [3] has as its target T2, human thyroid hormone receptors TRα1 (Homo sapiens, UniProt P10827).
T2 construct: made in house; host or cells: Sf9 insect cells (baculovirus)
T2 sequence (P10827 1-410 isoform P10827-2): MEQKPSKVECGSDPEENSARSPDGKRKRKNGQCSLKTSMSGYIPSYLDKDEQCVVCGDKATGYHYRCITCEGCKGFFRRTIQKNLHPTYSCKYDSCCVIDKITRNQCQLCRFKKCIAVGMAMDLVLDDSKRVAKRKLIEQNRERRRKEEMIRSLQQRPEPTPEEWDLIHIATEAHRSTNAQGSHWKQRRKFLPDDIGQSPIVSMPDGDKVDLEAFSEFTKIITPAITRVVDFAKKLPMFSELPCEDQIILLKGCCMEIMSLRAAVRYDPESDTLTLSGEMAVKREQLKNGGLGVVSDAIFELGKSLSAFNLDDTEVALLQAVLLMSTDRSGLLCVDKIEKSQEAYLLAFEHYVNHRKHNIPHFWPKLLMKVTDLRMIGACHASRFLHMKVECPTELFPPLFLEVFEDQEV
T2 sequence (P19793 1-462 partner): T1 sequence (P19793 1-462 partner)
The data set can be described thus: Receptor binding to TRα1 (gel filtration and scintillation proximity assay, labeled T3). Conditions: SPA data; read-out: Ki TRα.

The nature of data set [4]: Prodrug activation in rat liver microsomes. Conditions: for Vmax: dexamethasone treated rat microsomes, formation of Compound 7; for microsomal CLint: rat, liver microsomes from dexamethasone-treated rats, intrinsic clearance calculated from the kinetic parameters. In kind it is in vitro ADME. The source says:
(§1) The purpose of these studies was to determine the kinetics of activation of prodrugs of thyromimetics in microsomal preparations. Microsomes contain the P450 enzyme that is required for the activation of many of the prodrugs prepared. The Km, Vmax, and intrinsic clearance values determined are measures of prodrug affinity for the microsomal enzymes, the rate at which the prodrug is activated, and the catalytic efficiency with which the prodrug is activated, respectively.
(§2) Methods: Activation of prodrugs by dexamethasone treated rat hepatocyte microsomes. Microsomes were isolated by standard differential centrifugation methods from dexamethasone-treated rats. The treatment is to increase cytochrome P450-3A (CYP3A4) activity. Induction of CYP3A4 was confirmed by an increase in testosterone hydroxylation.
(§3) Various concentrations of HepDirect™ Compound 7 were incubated with rat hepatocytes microsomes. Compound 7 formation was analyzed by HPLC using UV-Vis detection. Kinetic parameters (Vmax and Km) were calculated from the transformed data and the intrinsic clearance calculated from the kinetic parameters.

Data set [5] concerns CYP3A (cytochrome P450-3A (CYP3A4)). The data set can be described thus: Prodrug activation in rat liver microsomes. In kind it is in vitro ADME. Conditions: liver microsomes from dexamethasone-treated rats; dexamethasone treated rat microsomes, formation of Compound 7.
From the text: as §1, §2, §3
In general terms: Liver microsomes are a subcellular fraction often used to study metabolism.

For data set [6] the following is noted: effects on cholesterol and TSH at the same or not pharmacologically different doses; cited from earlier work.

For the compound `Cc1cc(OCP(=O)(OCOC(=O)C(C)(C)C)OCOC(=O)C(C)(C)C)cc(C)c1Cc1ccc(O)c(C(C)C)c1` [Compound 12-1, di(pivaloyloxymethyl) [3,5-Dimethyl-4-(4′-hydroxy-3′-iso-propylbenzyl)phenoxy]methylphosphonate], the figures for the Ki in data set [1] and in data set [3] were 662 nM and 1670 nM, respectively. In data set [2], the “absorption in the rat” value is on record as “adequately absorbed”.
With `Cc1cc(OCP(=O)(OCOC(=O)OC(C)C)OCOC(=O)OC(C)C)cc(C)c1Cc1ccc(O)c(C(C)C)c1` [Compound 12-3, di(isopropoxycarbonyloxymethyl)[3,5-dimethyl-4-(4′-hydroxy-3′-iso-propylbenzyl)phenoxy]methylphosphonate], the Ki in data set [1] was 156 nM. Also, in data set [4], the maximal velocity (Vmax) worked out at 775 pmol/min/mg and the microsomal CLint was 54 µL/min/mg. Moreover, the Km in data set [5] came out at 14 µM. Also, the Ki in data set [3] turned out to be 738 nM.
The matching figures for `Cc1cc(OC[P@@]2(=O)OCC[C@@H](c3cccc(Br)c3)O2)cc(C)c1Cc1ccc(O)c(C(C)C)c1` [Compound 13-2-cis, 2-[(3,5-dimethyl-4-(4′-hydroxy-3′-iso-propylbenzyl)phenoxy)methyl]-4-(3-bromophenyl)-2-oxo-2λ^5-[1,3,2]-diox aphosphonane]: 419 nM, 694 pmol/min/mg, 86 µL/min/mg, 8 µM and 488 nM.
The matching figures for `Cc1cc(OC[P@@]2(=O)OCC[C@@H](c3cccc(F)c3)O2)cc(C)c1Cc1ccc(O)c(C(C)C)c1` [Compound 13-3-cis]: 3430 nM, 2118 pmol/min/mg, 46 µL/min/mg, 46 µM and 2840 nM.
The matching figures for `Cc1cc(OC[P@@]2(=O)OCC[C@@H](c3cccnc3)O2)cc(C)c1Cc1ccc(O)c(C(C)C)c1` [Compound 13-4-cis, 2-[(3,5-dimethyl-4-(4′-hydroxy-3′-iso-propylbenzyl)phenoxy)methyl]-4-(pyrid-3-yl)-2-oxo-2λ^5-[1,3,2]-dioxaphosphonane]: 1520 nM, 2983 pmol/min/mg, 30 µL/min/mg, 100 µM and 5530 nM.
As to `Cc1cc(OC[P@@]2(=O)OCC[C@@H](c3ccncc3)O2)cc(C)c1Cc1ccc(O)c(C(C)C)c1` [Compound 13-5-cis, 2-[(3,5-dimethyl-4-(4′-hydroxy-3′-iso-propylbenzyl)phenoxy)methyl]-4-(pyrid-4-yl)-2-oxo-2λ^5-[1,3,2]-dioxaphosphonane], in data set [1], the Ki was 1010 nM. Further, in data set [4], the “Vmax” value was found to be 3266 pmol/min/mg and the microsomal CLint was 29 µL/min/mg. In addition, in data set [5], the Km is 113 µM. In addition, the Ki in data set [3] was 4430 nM.
Regarding `Cc1cc(OC[P@]2(=O)OCC[C@H](c3ccc(Cl)cc3)O2)cc(C)c1Cc1ccc(O)c(C(C)C)c1` [Compound 13-6-cis, 2-[(3,5-dimethyl-4-(4′-hydroxy-3′-iso-propylbenzyl)phenoxy)methyl]-4-(4-chlorophenyl)-2-oxo-2λ^5-[1,3,2]-dioxaphosphonane], the Ki in data set [1] was found to be 3590 nM. In addition, in data set [4], the “Vmax” value is listed as 598 pmol/min/mg and the microsomal CLint is 62 µL/min/mg. The Km in data set [5] is 10 µM. Also, the Ki in data set [3] is 4710 nM.
For the compound `CC(C)c1cc(Oc2c(Br)cc(CP(=O)(O)O)cc2Br)ccc1O` [Compound 19-2, [3,5-dibromo-4-(4′-hydroxy-3′-iso-propylphenoxy)]benzylphosphonic Acid], the inhibitory constant (Ki) is 20 nM in data set [1] and 343 nM in data set [3]. Moreover, the “absorption in the rat” value in data set [2] was “not adequately absorbed”.
Consider `Cc1cc(OCC(=O)O)cc(C)c1Cc1ccc(O)c(C(C)C)c1` [GC-1, [4-[[4-hydroxy-3-(1-methylethyl)phenyl]methyl]-3,5-dimethylphenoxy]acetic acid], for which, in data set [6], the TSH levels result is reported as “dose-dependently lower” and the cholesterol levels entry is given as “dose-dependently lower”.
